Laboratory results: US11793779B2, “Hica for use in prophylaxis and/or treatment of a disease or condition involving degradation of cartilage and/or disruption of cartilage homeostasis and/or integrity” (Salarusta Oy, priority 2020, dated 2023)

Experiments:
Format in all cases: biochemical
[1] = biological target: T1, Human recombinant pure MMP-8 (Homo sapiens, UniProt P22894); assay: MMP-8 mediated DEL-1 fragmentation (SDS-PAGE, silver stain); settings: for inhibition of MMP-8 mediated DEL-1 fragmentation: Study A, 4 μl of 10% isomer, overnight at 37° C., FIG. 3A
T1 construct: purchased Proteaimmun 30100702
T1 sequence (P22894 101-467): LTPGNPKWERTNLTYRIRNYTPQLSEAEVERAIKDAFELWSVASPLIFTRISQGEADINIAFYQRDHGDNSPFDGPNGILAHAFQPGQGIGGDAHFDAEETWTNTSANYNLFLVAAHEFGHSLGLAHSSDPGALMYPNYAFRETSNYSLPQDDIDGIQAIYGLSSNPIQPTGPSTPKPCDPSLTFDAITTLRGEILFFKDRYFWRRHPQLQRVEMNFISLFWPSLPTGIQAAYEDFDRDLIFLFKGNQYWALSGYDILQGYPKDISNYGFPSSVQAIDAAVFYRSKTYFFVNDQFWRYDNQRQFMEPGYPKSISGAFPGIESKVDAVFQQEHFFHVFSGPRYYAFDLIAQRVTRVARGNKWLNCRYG
Protocol: The degradation of DEL-1 by MMP-8 was determined similarly as described (DeCarlo 1994, Sorsa, Salo et al. 1997). Human recombinant pure MMP-8 (#30100702, Proteaimmun) was preincubated 1 hour at 37° C. with p-aminophenylmercuric acetate (APMA) and different HICA isomers (D-HICA, #CAS 20312-37-2, Santa Cruz Biotechnology; L-HICA, #219827 Sigma-Aldrich). After which DEL-1 was added as a substrate. That was let incubate overnight at +37° C. Analyzed on […] SDS-PAGE with Silver Stain Pierce®. α-hydroxy-isovaleric acid (HMB). Ilomastat (Ilo). As assay buffer 50 mM Tris-HCl-buffer (TNC): pH 7.5; 0.2 M NaCl; 1.0 mM CaCl2 (Tervahartiala, Ingman et al. 1995). Fragmentation of DEL-1 induced by MMP-8 treated with 1 mM APMA was regarded as 100%. (Sorsa, Salo et al. 1997).
Study A: • 1. 1.7 μl DEL-1 (0.2 μg/μl) • 2. 1 μl MMP-8 (0.1 μg/μl)+5 μl 2 mM APMA+4 μl TNC • 3. 1.7 μl DEL-1 (0.2 μg/μl)+1 μl MMP-8 (0.1 μg/μl)+5 μl 2 mM APMA+4 μl TNC • 4.,5. 1.7 μl DEL-1 (0.2 μg/μl)+1 μl MMP-8 (0.1 μg/μl)+5 μl 2 mM APMA+10% 4 μl D-HICA • 6.,7. 1.7 μl DEL-1 (0.2 μg/μl)+1 μl MMP-8 (0.1 μg/μl)+5 μl 2 mM APMA+10% 4 μl L-HICA • 8.,9. 1.7 μl DEL-1 (0.2 μg/μl)+1 μl MMP-8 (0.1 μg/μl)+5 μl 2 mM APMA+10% 4 μl D-HMB • 10.,11. 1.7 μl DEL-1 (0.2 μg/μl)+1 μl MMP-8 (0.1 μg/μl)+5 μl 2 mM APMA+10% 4 μl L-HMB • 12.,13. 1.7 μl DEL-1 (0.2 μg/μl)+1 μl MMP-8 (0.1 μg/μl)+5 μl 2 mM APMA+4 μl Ilo
Study B: • 1. 1.7 μl DEL-1 (0.2 μg/μl) • 2. 1 μl MMP-8 (0.1 μg/μl)+5 μl 2 mM APMA+4 μl TNC • 3.,4. 1.7 μl DEL-1 (0.2 μg/μl)+1 μl MMP-8 (0.1 μg/μl)+5 μl 2 mM APMA+4 μl TNC • 6.,7. 1.7 μl DEL-1 (0.2 μg/μl)+1 μl MMP-8 (0.1 μg/μl)+7 μl 1.4 mM APMA+2 μl 10% D-HICA • 8.,9.,10. 1.7 μl DEL-1 (0.2 μg/μl)+1 μl MMP-8 (0.1 μg/μl)+5 μl 2 mM APMA+4 μl 10% D-HICA • 11.,12.,13. 1.7 μl DEL-1 (0.2 μg/μl)+1 μl MMP-8 (0.1 μg/μl)+1 μl 10 mM APMA+8 μl 10% D-HICA • 14. 1.7 μl DEL-1 (0.2 μg/μl)+1 μl MMP-8 (0.1 μg/μl)+5 μl 2 mM APMA+4 μl Ilo

[2] = biological target: T2, recombinant human ADAMTS-5 (Homo sapiens, UniProt Q9UNA0); assay: ADAMTS-5 mediated break down of aggrecan (SDS-PAGE, silver stain); settings: 10% racemic HICA, pH 7.4, incubation 2 d, FIG. 1 line 5
T2 construct: purchased Chemicon International Inc. CC1034
T2 sequence (Q9UNA0 262-930): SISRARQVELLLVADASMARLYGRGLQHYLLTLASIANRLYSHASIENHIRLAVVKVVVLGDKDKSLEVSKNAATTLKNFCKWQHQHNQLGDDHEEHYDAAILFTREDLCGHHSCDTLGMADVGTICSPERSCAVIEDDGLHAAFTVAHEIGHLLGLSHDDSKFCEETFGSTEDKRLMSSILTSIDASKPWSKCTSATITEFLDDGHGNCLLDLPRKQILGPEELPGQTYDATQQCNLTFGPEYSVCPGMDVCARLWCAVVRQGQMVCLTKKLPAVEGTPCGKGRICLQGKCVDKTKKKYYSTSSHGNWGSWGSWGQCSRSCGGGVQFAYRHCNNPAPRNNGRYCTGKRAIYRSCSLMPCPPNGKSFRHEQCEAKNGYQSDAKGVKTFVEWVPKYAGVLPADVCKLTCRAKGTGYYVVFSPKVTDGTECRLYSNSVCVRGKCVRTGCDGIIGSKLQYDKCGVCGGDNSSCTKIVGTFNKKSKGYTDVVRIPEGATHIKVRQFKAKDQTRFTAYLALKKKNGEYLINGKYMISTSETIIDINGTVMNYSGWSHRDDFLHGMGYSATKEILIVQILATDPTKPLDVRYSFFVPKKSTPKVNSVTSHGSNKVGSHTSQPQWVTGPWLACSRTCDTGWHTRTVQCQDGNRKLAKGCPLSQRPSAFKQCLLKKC
Protocol: (§1) As positive inhibitor controls Ilomastat (Ilo, CC1010, Millipore) and chlorhexidine (CHX, Corsodyl®, [2 mg/ml] (GlaxoSmithKline, Brøndby, Denmark) were used and 50 mM Tris-HCl-buffer (TNC): pH 7.5; 0.2 M NaCl; 1.0 mM CaCl2) was used as neutral assay buffer.
(§2) MMP-13 was preincubated 1 hour at 37° C. with p-aminophenylmercuric acetate (APMA, A9563, Sigma-Aldrich) to optimally activate (pro)MMP-13. As substrate, Aggrecan was added and then ADAMTS-5 or activated MMP-13 as catalytic/proteolytic enzyme and TNC, as neutral control, and 10% HICA, CHX or Ilo as protease/MMP-inhibitors let incubated together from 1 hour (h) to 2 days (d). The enzyme reactions terminated by boiling with modified Laemmli buffer. The samples were analysed by 8% SDS-PAGE and after electrophoresis the defragmentation of Aggrecan was visualised using Silver Stain Pierce®.
(§3) Sample with concentrations in lines: • 1. 0.25 μl molecular weight standards. Bio-Rad • 2. 4.2 μl Aggrecan (0.5 μg/μl) • 3. 4 μl ADAMTS-5 (0.1 μg/μl) • 4. 4.2 μl Aggrecan+4 μl ADAMTS-5+6 μl TNC-buffer. inc: 2d • 5. 4.2 μl Aggrecan+4 μl ADAMTS-5+6 μl 10% HICA. inc: 2d • 6. 4.2 μl Aggrecan+4 μl ADAMTS-5+6 μl CHX (2 mg/ml). inc: 2d • 7. 1 μl MMP-13 (0.2 μg/μl)+3 μl 2 mM APMA+6 μl TNC • 8. 4.2 μl Aggrecan+1 μl MMP-13 (0.2 μg/μl)+3 μl 2 mM APMA+6 μl TNC. inc: 1h • 9. 4.2 μl Aggrecan+1 μl MMP-13 (0.2 μg/μl)+3 μl 2 mM APMA+6 μl TNC. inc: 2d • 10. […]

[3] = biological target: T3, human Matrix metalloproteinase 13 (MMP-13) (Homo sapiens, UniProt P45452); assay: MMP-13 mediated break down of aggrecan (SDS-PAGE, silver stain); settings: 10% racemic HICA, APMA-activated MMP-13, incubation 2 d, FIG. 1 line 11
T3 construct: purchased BioTeZ, Berlin-Buch, Berlin, Germany 30100802
Protocol: as §1, §2, §3

Structure (SMILES)	inhibition of MMP-8 mediated DEL-1 fragmentation [1]	dose dependence of inhibition of MMP-8 mediated DEL-1 fragmentation ([1]; Study B, 2, 4 and 8 μl of 10% D-HICA, FIG. 3B)	inhibition of break down of Aggrecan by ADAMTS-5 [2]	inhibition of break down of Aggrecan by MMP-13 [3]
CC(C)C[C@@H](O)C(=O)O [D-HICA]	able to prevent fragmentation of DEL-1	inhibit MMP-8 dose-dependently	–	–
CC(C)C[C@H](O)C(=O)O [L-HICA]	able to prevent fragmentation of DEL-1	–	–	–
[H]/N=C(\N/C(=N/[H])NCCCCCCNC(=N)NC(=N)Nc1ccc(Cl)cc1)Nc1ccc(Cl)cc1 [chlorhexidine, reference compound]	–	–	prevent enzyme activity	prevent enzyme activity
